Consider one molecule from patent US9149535B2, “Polymers and the preparation of nanogel drug cocktails” (University of South Carolina, priority 2012, dated 2015).

The subject of this experiment is cancer cells. The experiment can be described thus: Intracellular trafficking by confocal laser scanning microscopy (CLSM). The experiment is classed as cell-based. The note with it: 3 hr. From the text: To monitor the intracellular trafficking of nanogel, confocal laser scanning microscopy (CLSM) was employed. […] Since only about 20% DOX could be released from nanogel under the intracellular environment (FIG. 2A), the signals should mainly represent ND nanogel. […] Due to its relatively large size, it will be impossible for it to pass the nuclear pore complex, which is about 40 nm.

For the molecule `COc1cccc2c1C(=O)c1c(O)c3c(c(O)c1C2=O)C[C@@](O)(C(=O)CO)C[C@@H]3O[C@H]1C[C@H](N)[C@H](O)[C@H](C)O1` [DOX, doxorubicin], the intracellular localisation entry is on record as “preferentially labels their nuclei”.
